Results taken from patent US10919869B2, “Thiazole derivative and applications” (EAST CHINA UNIVERSITY OF SCIENCE AND TECHNOLOGY, priority 2016, dated 2021).
Where two headings read alike, the source gives them in different places.

Key:
hsDHODH = hsDHODH (Homo sapiens (Human), UniProt Q02127); assay: Activity test at enzyme level: DHODH inhibition, DCIP absorbance at 600 nm; assay type: biochemical
Experimental: Culture and Purification of hsDHODH Protein
The correctly sequenced recombinant plasmid pET-19b-DHODH was transformed into competent E. coli BL21 (DE3), and cultured on LB plate containing ampicillin. Colonies were randomly selected, inoculated into LB medium containing […], and incubate overnight at 37° C., 230 rpm. The cells were inoculated at a ratio of 1:200 in 500 mL of LB medium containing […] and expanded at 37° C., 230 rpm. When the OD value of the cells reached 0.8-1, IPTG was added into the medium to a final concentration of IPDG of 0.5 mM, and expression was induced overnight at 25° C. The induced cells were collected by centrifugation at […], 4° C., washed with deionized water, and centrifuged again to collect the bacterial pellet, which was stored at −80° C.
Purification of protein: cells were re-suspended in lysis liquid containing 50 mM HEPES (pH 8.0), 0.15 M NaCl, 10 mM imidazole, 10% glycerol, 0.1% Triton X-100, and a small amount of soy protease inhibitor added. After re-suspended and mixed homogeneously, cells were ultrasonically disrupted. The disruption solution was centrifuged for 30 min, and the supernatant and precipitate were taken for protein electrophoresis to determine the form of protein. The supernatant was loaded onto a Ni-NTA column, and the pass-through liquid was collected, and then the resin was washed for 3-4 times with a lysis liquid containing 20 mM imidazole, and finally eluted with a lysis liquid containing 300 mM imidazole. After elution, protein solution was collected. 10 μL of the above protein sample was taken for SDS-PAGE electrophoresis to determine the content of target protein. Finally, the eluted protein solution is dialyzed in the dialysis liquid to remove imidazole, thereby obtaining a pure protein.
Method for Testing Activities of Compounds at Enzyme Level
Principles of activity test at enzyme level: firstly, dihydroorotate (DHO) is oxidatively dehydrogenated by DHODH to form orotic acid (Orotate, OA), accompanied by reduction of Flavin mononucleotide (FMN) into reduced flavin mononucleotide (FMNH2) by accepting 2H+ and 2e−, then coenzyme Q (CoQ) as hydrogen acceptor accepting electron and proton from FMNH2 is reduced into reduced coenzyme Q (CoQH2), reduced coenzyme Q transfers electrons to a chromogenic substrate, […] (DCIP), and finally DCIP was reduced. […] The degree to which the substrate DHO is oxidized can be judged based on the degree of decrease in absorbance. The degree of oxidation of the substrate DHO per unit time is the initial rate of the enzymatic reaction. Upon addition of a inhibitor, the initial rate of the enzymatic reaction is reduced.
Substrate DHO was added to start the reaction with a DHO final concentration of 500 μM. The absorbance was read at 600 nm using a BioTek microplate reader and read every 30 s for 6 min. […] For calculating IC50 of a compound, Origin 8.0 was used to test the inhibition rate at least 8 concentrations.

CIA model rats = assay: Pharmacodynamic evaluation on rheumatoid arthritis model (type II collagen-induced arthritis, CIA); assay type: in vivo, Wistar rat; conditions: CIA Wistar rats; for degree of joint swelling: FIG. 2B; for gain of body weight: intraperitoneal injection, FIG. 2A
Experimental: The animal model used in this experiment was a type II collagen-induced arthritis animal model (CIA) established by using Wistar rat. On the 0 and 7th day of the experiment, rats were subcutaneously injected with a mixed solution of Bovine II Collagen (CII) and Incomplete Freund's Adjuvant (IFA) to establish a rat model of arthritis.
In the pharmacodynamic test of Compound 1, Compound 1 and the positive drug, methotrexate were dissolved in a solvent system consisting of dimethyl sulfoxide (DMSO), polyethylene glycol 400 (PEG 400) and physiological saline at a volume ratio of 1:10:9.
During the administration to the rats (day 0 to 27 of the experiment), the body weight of a rat was weighed every three days, and the growth was observed. After the joints of the rat began to swell, the degree of joint swelling was scored every two days.
Because the incidence of inflammation in fore paw is low and the hind paws are more prone to swelling and the degree of swelling is more serious, the sum of the scores of two hind paws is used to evaluate the incidence of arthritis in rats. The maximum sum of score is 8 points.
In this experiment, Wistar rats were used to establish a CIA animal model. Joints were taken on the 28th day for subsequent fixation, paraffin embedding, section, staining and histopathological observation. The experiment results are shown as follows: During the experiment, the weight of rats in the control group continued to increase.

[1] = pharmaceutically acceptable esters (prodrugs of A and B series), hsDHODH enzyme test, read-out: IC50

Chain of hsDHODH (Q02127 whole entry): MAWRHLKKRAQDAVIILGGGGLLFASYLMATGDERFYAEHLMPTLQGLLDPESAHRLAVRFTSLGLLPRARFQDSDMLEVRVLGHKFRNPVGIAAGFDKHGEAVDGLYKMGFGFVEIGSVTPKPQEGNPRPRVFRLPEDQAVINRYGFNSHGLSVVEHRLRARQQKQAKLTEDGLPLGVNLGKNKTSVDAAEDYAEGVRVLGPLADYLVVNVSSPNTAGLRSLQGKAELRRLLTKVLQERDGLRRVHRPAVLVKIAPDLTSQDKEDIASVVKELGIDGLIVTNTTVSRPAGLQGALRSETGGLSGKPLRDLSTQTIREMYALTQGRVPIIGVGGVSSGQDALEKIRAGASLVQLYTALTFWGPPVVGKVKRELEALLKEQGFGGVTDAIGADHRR

CN(/N=C/c1ccccc1C(=O)O)c1nc(-c2ccccc2Cl)cs1 [Compound 1, (E)-4-(2-chlorophenyl)-2-[1-methyl-2-(2-carboxybenzylidene)hydrazino]thiazole]
IC50 (hsDHODH; purified DHODH 10 nM, DHO 500 μM, CoQ 100 μM, DCIP 120 μM, read-out: IC50 (μM) hsDHODH): 0.0097 ± 0.0001 µM
degree of joint swelling (CIA model rats; 5 mg/kg intraperitoneal, compared with model group): significantly reduced
degree of joint swelling (CIA model rats; 30 mg/kg intraperitoneal, compared with model group): more significantly reduced
gain of body weight (CIA model rats; compared with model group): improve the condition of the rats and the slow gain of body weight
histopathological features of joint tissue (HE staining) (CIA model rats; joints taken on day 28, FIG. 3): significantly alleviated
synovial hyperplasia and inflammatory cell infiltration (CIA model rats; tissue sections, compared with model group): greatly improved

CN(/N=C/c1ccccc1C(=O)OC1CCCCC1)c1nc(-c2ccccc2Cl)cs1 [Compound B8, (E)-4-(2-chlorophenyl)-2-[1-methyl-2-(2-cyclohexyloxyformylbenzylidene)hydrazino]thiazole]
IC50 (hsDHODH; [1]): > 50 µM

CN(/N=C/c1ccccc1C(=O)OCOC(=O)C(C)(C)C)c1nc(-c2ccccc2Cl)cs1 [Compound B10, (pivaloyloxy)methyl (E)-2-((2-(4-(2-chlorophenyl)thiazol-2-yl)-2-methylhydrazono)methyl)benzoate]
IC50 (hsDHODH; [1]): > 50 µM

CC(C)OC(=O)OCOC(=O)c1ccccc1/C=N/N(C)c1nc(-c2ccccc2Cl)cs1 [Compound B11, ((isopropoxycarbonyl)oxy)methyl (E)-2-((2-(4-(2-chlorophenyl)thiazol-2-yl)-2-methylhydrazono)methyl)benzoate]
IC50 (hsDHODH; [1]): > 50 µM

CN(Cc1cnc2nc(N)nc(N)c2n1)c1ccc(C(=O)N[C@@H](CCC(=O)O)C(=O)O)cc1 [Methotrexate, reference compound]
degree of joint swelling (CIA model rats; 0.3 mg/kg intraperitoneal, positive drug): significantly reduce the degree of joint swelling
gain of body weight (CIA model rats; compared with model group): improve the condition of the rats and the slow gain of body weight
